For one assay, the target named is T1, ER (Homo sapiens, UniProt P03372).
T1 construct: endogenous in cells; probably T47D or MCF-7
T1 sequence (P03372 1-595): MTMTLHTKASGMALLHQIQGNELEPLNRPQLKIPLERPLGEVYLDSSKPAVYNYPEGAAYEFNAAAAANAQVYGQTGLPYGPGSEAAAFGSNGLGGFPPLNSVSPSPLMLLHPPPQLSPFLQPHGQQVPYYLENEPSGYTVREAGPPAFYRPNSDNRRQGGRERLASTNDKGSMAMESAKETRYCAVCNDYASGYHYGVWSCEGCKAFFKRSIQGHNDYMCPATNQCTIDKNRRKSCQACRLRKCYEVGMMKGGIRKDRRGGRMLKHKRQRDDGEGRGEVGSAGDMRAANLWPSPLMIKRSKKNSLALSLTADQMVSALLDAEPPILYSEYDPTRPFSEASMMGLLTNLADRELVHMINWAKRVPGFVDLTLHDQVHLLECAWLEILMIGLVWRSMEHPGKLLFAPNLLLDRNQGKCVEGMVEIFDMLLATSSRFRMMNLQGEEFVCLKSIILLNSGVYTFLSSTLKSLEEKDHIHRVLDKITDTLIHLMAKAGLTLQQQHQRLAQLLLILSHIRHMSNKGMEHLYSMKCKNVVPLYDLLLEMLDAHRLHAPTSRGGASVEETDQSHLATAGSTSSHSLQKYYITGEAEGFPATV
In words: In-cell western blot analysis, relative ER percentage (compounds B1-B126). Format: cell-based. As to conditions: ER degradation, 16 hours, read-out: ICW DC50. Summed up:
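Readout was a two-colour infrared in-cell western of formaldehyde-fixed cells after 16 h compound exposure at 0.5% DMSO, with 40,000 or 10,000 cells/well plated the previous night. Relative ER percentage compares treated wells against untreated/DMSO-treated wells taken as 100%.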

Assay [1] can be described thus: Cell growth assay, WST-8 (compounds B1-B126). Format: cell-based. As to conditions: 96 h; T47D cell line, WST-8, 4 days; read-out: Cell growth inhibition in T47D cell line IC50. In outline: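 Read-out is WST-8 absorbance at 450 nm (2.5 h, 37° C) as a fraction of vehicle control, from three separate repeats. Compound exposure lasted 4 days, starting one day after plating 1500 cells/well.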

Take `C[C@@H]1Cc2c(ccc3[nH]ncc23)[C@@H](c2ccc(N3CCC4(CC3)CC(CN3CCN5c6ccc7c(c6OC[C@H]5C3)CN(C3CCC(=O)NC3=O)C7=O)CO4)cn2)N1CC(F)(F)F` (stereo partly drawn) [Compound B91, 3-((5aR)-7-((8-(6-((6S,8R)-8-methyl-7-(2,2,2-trifluoroethyl)-6,7,8,9-tetrahydro-3H-pyrazolo[4,3-f]isoquinolin-6-yl)pyridin-3-yl)-1-oxa-8-azaspiro[4.5]decan-3-yl)methyl)-1-oxo-1,3,5,5a,6,7,8,9-octahydro-2H-pyrazino[1′,2′:4,5][1,4]oxazino[2,3-e]isoindol-2-yl)piperidine-2,6-dione]: the DC50 on ER is below 10 nM. The IC50 in assay [1] lay in the range of 1 to 10 nM.
For the molecule `C[C@@H]1Cc2c(ccc3[nH]ncc23)[C@@H](c2ccc(N3CCC4(CC3)CC(CN3CCN5c6ccc(C(=O)N(C)C7CCC(=O)NC7=O)nc6OC[C@H]5C3)C4)cn2)N1CC(F)(F)F` (stereo partly drawn) [Compound B92, (4aR)-N-(2,6-dioxopiperidin-3-yl)-N-methyl-3-((7-(6-((6S,8R)-8-methyl-7-(2,2,2-trifluoroethyl)-6,7,8,9-tetrahydro-3H-pyrazolo[4,3-f]isoquinolin-6-yl)pyridin-3-yl)-7-azaspiro[3.5]nonan-2-yl)methyl)-1,2,3,4,4a,5-hexahydropyrazino[1,2-d]pyrido[2,3-b][1,4]oxazine-8-carboxamide], on ER, the DC50 is above 100 nM. Moreover, in assay [1], the IC50 is above 10 nM.
Take `C[C@@H]1Cc2c(ccc3[nH]ncc23)[C@@H](c2ccc(N3CCC4(CC3)CC(CN3CCN5c6ccc(C(=O)N[C@H]7CCC(=O)NC7=O)nc6OC[C@H]5C3)CO4)cn2)N1CC(F)(F)F` (stereo partly drawn) [Compound B93, (4aR)-N-((S)-2,6-dioxopiperidin-3-yl)-3-((8-(6-((6S,8R)-8-methyl-7-(2,2,2-trifluoroethyl)-6,7,8,9-tetrahydro-3H-pyrazolo[4,3-f]isoquinolin-6-yl)pyridin-3-yl)-1-oxa-8-azaspiro[4.5]decan-3-yl)methyl)-1,2,3,4,4a,5-hexahydropyrazino[1,2-d]pyrido[2,3-b][1,4]oxazine-8-carboxamide]: the DC50 at ER lay within 10 to 100 nM. The concentration for half-maximal inhibition (IC50) in assay [1] was in the range of 1 to 10 nM.
`C[C@@H]1Cc2c(ccc3[nH]ncc23)[C@@H](c2ccc(N3CCC4(CC3)CC(CN3CCN5c6cc7c(cc6OC[C@@H]5C3)C(=O)N(C3CCC(=O)NC3=O)C7)CO4)cn2)N1CC(F)(F)F` (stereo partly drawn) [Compound B94, 3-((4aS)-3-((8-(6-((6S,8R)-8-methyl-7-(2,2,2-trifluoroethyl)-6,7,8,9-tetrahydro-3H-pyrazolo[4,3-f]isoquinolin-6-yl)pyridin-3-yl)-1-oxa-8-azaspiro[4.5]decan-3-yl)methyl)-8-oxo-1,2,3,4,4a,5,8,10-octahydro-9H-pyrazino[1′,2′:4,5][1,4]oxazino[2,3-f]isoindol-9-yl)piperidine-2,6-dione]: on ER, the half-maximal degradation concentration (DC50) was below 10 nM. Also, the IC50 in assay [1] was below 1 nM.
In the case of `C[C@@H]1Cc2c(ccc3[nH]ncc23)[C@@H](c2ccc(N3CCC4(CC3)CC(CN3CCC5(CC3)COc3c5ccc5c3CN(C3CCC(=O)NC3=O)C5=O)CO4)cn2)N1CC(F)(F)F` (stereo partly drawn) [Compound B95, 3-(1′-((8-(6-((6S,8R)-8-methyl-7-(2,2,2-trifluoroethyl)-6,7,8,9-tetrahydro-3H-pyrazolo[4,3-f]isoquinolin-6-yl)pyridin-3-yl)-1-oxa-8-azaspiro[4.5]decan-3-yl)methyl)-6-oxo-6,8-dihydro-2H,7H-spiro[furo[2,3-e]isoindole-3,4′-piperidin]-7-yl)piperidine-2,6-dione], the DC50 on ER is above 100 nM. In assay [1], the IC50 is below 1 nM.
Taken in the same sequence, the figures for `C[C@@H]1Cc2c(ccc3[nH]ncc23)[C@@H](c2ccc(N3CC4(CC(CN5CCN6c7ccc8c(c7OC[C@H]6C5)CN(C5CCC(=O)NC5=O)C8=O)CO4)C3)cn2)N1CC(F)(F)F` (stereo partly drawn) [Compound B96, 3-((5aR)-7-((2-(6-((6S,8R)-8-methyl-7-(2,2,2-trifluoroethyl)-6,7,8,9-tetrahydro-3H-pyrazolo[4,3-f]isoquinolin-6-yl)pyridin-3-yl)-5-oxa-2-azaspiro[3.4]octan-7-yl)methyl)-1-oxo-1,3,5,5a,6,7,8,9-octahydro-2H-pyrazino[1′,2′:4,5][1,4]oxazino[2,3-e]isoindol-2-yl)piperidine-2,6-dione] were below 10 nM and below 1 nM.
For the molecule `C[C@@H]1Cc2c(ccc3[nH]ncc23)[C@@H](c2ccc(N3CC4(CC(CN5CCN6c7cc8c(cc7OC[C@@H]6C5)C(=O)N(C5CCC(=O)NC5=O)C8)CO4)C3)cn2)N1CC(F)(F)F` (stereo partly drawn) [Compound B97, 3-((4aS)-3-((2-(6-((6S,8R)-8-methyl-7-(2,2,2-trifluoroethyl)-6,7,8,9-tetrahydro-3H-pyrazolo[4,3-f]isoquinolin-6-yl)pyridin-3-yl)-5-oxa-2-azaspiro[3.4]octan-7-yl)methyl)-8-oxo-1,2,3,4,4a,5,8,10-octahydro-9H-pyrazino[1′,2′:4,5][1,4]oxazino[2,3-f]isoindol-9-yl)piperidine-2,6-dione], on ER, the DC50 is below 10 nM. Moreover, the concentration for half-maximal inhibition (IC50) in assay [1] was below 1 nM.
Consider `C[C@@H]1Cc2c(ccc3[nH]ncc23)[C@@H](c2c(F)cc(N3CC4(CN(CC(=O)N5CCN6c7ccc8c(c7OC[C@H]6C5)CN(C5CCC(=O)NC5=O)C8=O)C4)C3)cc2F)N1CC(F)F` (stereo partly drawn) [Compound B98, 3-((R)-7-(2-(6-(4-((6S,8R)-7-(2,2-difluoroethyl)-8-methyl-6,7,8,9-tetrahydro-3H-pyrazolo[4,3-f]isoquinolin-6-yl)-3,5-difluorophenyl)-2,6-diazaspiro[3.3]heptan-2-yl)acetyl)-1-oxo-1,3,5,5a,6,7,8,9-octahydro-2H-pyrazino[1′,2′:4,5][1,4]oxazino[2,3-e]isoindol-2-yl)piperidine-2,6-dione], for which, at ER, the DC50 is below 10 nM. The IC50 in assay [1] is below 1 nM.
`C[C@@H]1Cc2c(ccc3[nH]ncc23)[C@@H](c2c(F)cc(N3CCC(CN4CCN5c6c(ccc7c6CN(C6CCC(=O)NC6=O)C7=O)OC[C@@H]5C4)CC3)cc2F)N1CC(F)F` (stereo partly drawn) [Compound B99, 3-((S)-9-((1-(4-((6S,8R)-7-(2,2-difluoroethyl)-8-methyl-6,7,8,9-tetrahydro-3H-pyrazolo[4,3-f]isoquinolin-6-yl)-3,5-difluorophenyl)piperidin-4-yl)methyl)-3-oxo-1,3,7,7a,8,9,10,11-octahydro-2H-pyrazino[1′,2′:4,5][1,4]oxazino[3,2-e]isoindol-2-yl)piperidine-2,6-dione]: the DC50 at ER lay in the range of 10 to 100 nM. Moreover, the IC50 in assay [1] is above 10 nM.
Consider `C[C@@H]1Cc2c(ccc3[nH]ncc23)[C@@H](c2c(F)cc(NC3CN(C(=O)CN4CCN5c6ccc7c(c6OC[C@H]5C4)CN(C4CCC(=O)NC4=O)C7=O)C3)cc2F)N1CC(F)F` (stereo partly drawn) [Compound B100, 3-((R)-7-(2-(3-((4-((6S,8R)-7-(2,2-difluoroethyl)-8-methyl-6,7,8,9-tetrahydro-3H-pyrazolo[4,3-f]isoquinolin-6-yl)-3,5-difluorophenyl)amino)azetidin-1-yl)-2-oxoethyl)-1-oxo-1,3,5,5a,6,7,8,9-octahydro-2H-pyrazino[1′,2′:4,5][1,4]oxazino[2,3-e]isoindol-2-yl)piperidine-2,6-dione], for which the half-maximal degradation concentration (DC50) on ER lay within 10 to 100 nM. The half-inhibitory concentration (IC50) in assay [1] was 1 to 10 nM.
With `C[C@@H]1Cc2c(ccc3[nH]ncc23)[C@@H](c2c(F)cc(NC3CN(CC(=O)N4CCN5c6ccc7c(c6OC[C@H]5C4)CN(C4CCC(=O)NC4=O)C7=O)C3)cc2F)N1CC(F)F` (stereo partly drawn) [Compound B101, 3-((R)-7-(2-(3-((4-((6S,8R)-7-(2,2-difluoroethyl)-8-methyl-6,7,8,9-tetrahydro-3H-pyrazolo[4,3-f]isoquinolin-6-yl)-3,5-difluorophenyl)amino)azctidin-1-yl)acetyl)-1-oxo-1,3,5,5a,6,7,8,9-octahydro-2H-pyrazino[1′,2′:4,5][1,4]oxazino[2,3-e]isoindol-2-yl)piperidine-2,6-dione], on ER, the DC50 was below 10 nM. For the same molecule, in assay [1], the IC50 lay in the range of 1 to 10 nM.
Taken in the same sequence, the figures for `C[C@@H]1Cc2c(ccc3[nH]ncc23)[C@@H](c2ccc(N3CCC4(CC3)CC(CN3CCN5c6ccc7c(c6OC[C@H]5C3)CN(C3CCC(=O)NC3=O)C7=O)C4)cn2)N1CC(F)(F)F` (stereo partly drawn) [Compound B106, 3-((R)-7-((7-(6-((6S,8R)-8-methyl-7-(2,2,2-trifluoroethyl)-6,7,8,9-tetrahydro-3H-pyrazolo[4,3-f]isoquinolin-6-yl)pyridin-3-yl)-7-azaspiro[3.5]nonan-2-yl)mcthyl)-1-oxo-1,3,5,5a,6,7,8,9-octahydro-2H-pyrazino[1′,2′:4,5][1,4]oxazino[2,3-e]isoindol-2-yl)piperidine-2,6-dione] were below 10 nM and below 1 nM.

For the origin of these results see patent US20260256925A1, “INDAZOLE DERIVATIVES AS ESTROGEN RECEPTOR DEGRADERS” (REGENTS OF THE UNIVERSITY OF MICHIGAN, priority 2022, published 2026).
